Results published in patent publication US10857105B2, “Compounds and compositions for intracellular delivery of therapeutic agents” (ModernaTX, Inc., priority 2017, dated 2020).

Key:
[1] = Particle size and polydispersity index of nanoparticle compositions (Zetasizer Nano ZS); type: physicochemical
How it was run: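 Size and PDI measured by Zetasizer Nano ZS in 1×PBS (zeta potential in 15 mM PBS). Lipid nanoparticles contained test ionizable lipid:DSPC:cholesterol:PEG-DMG at 50:10:38.5:1.5 mol % with N1-methyl-pseudouridine mRNA encoding luciferase or hEPO.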

modified luciferase = test: Luciferase expression in liver, lung, spleen and femur 6 hours after intravenous administration to mice; type: in vivo; conditions: for Total Flux, Femur / Total Flux, Liver / Total Flux, Lung / Total Flux, Spleen: 6 hours after intravenous 0.5 mpk, mice
How it was run: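 Nanoparticle formulations of the modified luciferase were given intravenously to mice (n=3) at 0.5 mpk. Bioluminescence was measured after 6 hours as total light flux. Standard MC3 formulation and PBS run as controls.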

IL-6, IP-10 = test: Cytokine induction (IL-6, IP-10) in mice 6 hours after intravenous administration; type: in vivo; design: unit not given here; conditions: intravenous 0.5 mpk
Text: The introduction of foreign material into a mammalian body induces an innate immune response that promotes cytokine production. Such immune responses to, for example, nanoparticle compositions including therapeutic and/or prophylactics, are undesirable. The induction of certain cytokines is thus measured to evaluate the […] of nanoparticle compositions. The concentrations of various cytokines in mice upon intravenous administration of nanoparticle compositions presented in Table 1A at a dosage of 0.5 mpk was measured at 6 hours. The standard MC3 formulation and a PBS control were also tested. As is evident in Table 7, IL-6 induction was highest for compositions including Compounds 1, 3, 9, 19, and 26, while IP-10 induction was highest for compositions including Compounds 3, 4, 7, 20, and 26. IL-6 induction was lowest for compositions including Compounds 4, 11, 12, and 28. IP-10 induction was lowest for compositions including Compounds 10, 11, 12, 13, 15, 17, and 18.

luciferase (Luc) mRNA [2] = test: Luciferase expression (whole body bioluminescence) after intravenous administration to mice; type: in vivo; conditions: intravenous; for Novel lipid/MC3 expression ratio, i.v.: luciferase, 6 hr. time point, relative to MC3 formulation
How it was run: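 Mice (n=6) received lipid nanoparticle formulations carrying luciferase mRNA intravenously at 0.5 mg/kg. Whole-body bioluminescence was measured at 3, 6 and 24 h. Total flux was taken as area under the curve and expressed relative to a standard MC3 formulation.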

luciferase (Luc) mRNA [3] = test: Luciferase expression after intramuscular administration to mice; type: in vivo; conditions: for Total flux 6 hours after intramuscular administration, 0.01 mpk Dose: Luc mRNA
Text: The numbers 1-7 in this figure correspond to MC3, Compounds 168-170, and 173-175 respectively.
FIGS. 18A and 18B show the results of luciferase expression measured upon intramuscular administration of various nanoparticle compositions to CD-1 mice at 0.01 mpk. FIG. 18A is a bar graph showing total flux at 6 hr after administration. The numbers above each bar indicate the expression ratio relative to MC3. […] Numbers 1-11 in the Figures refer to compositions containing the following: 1: MC3, 2: Compound 143, 3: Compound 49; 4: Compound 113; 5: Compound 61; 6: Compound 72; 7: Compound 75; 8: Compound 71; 9: Compound 128; 10: Compound 156; 11: Compound 157.
The numbers 1-9 in this figure correspond to MC3, and Compounds 178, 181, 182, 218, 198, 200, 233, and 239, respectively.
The total flux (measured by area under the curve, AUC) induced by administration of a formulation including a given lipid relative to that induced by administration of a formulation including MC3 was also measured for several lipids.
Sample formulations including modified luciferase (Luc) mRNA prepared and administered intramuscularly and the resulting expression and immunogenicity were evaluated simultaneously. Formulations including compounds according to Formula (I), (IA), (IB), (II), (IIa), (IIb), (IIc), (IId), (IIe), (IIf), (IIg), or (III) were prepared and administered at dose of and 0.01 mpk.

[4] = Encapsulation efficiency of RNA in nanoparticle compositions (RIBOGREEN assay); type: physicochemical
How it was run: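 Lipid nanoparticles (ionisable lipid:DSPC:cholesterol:PEG-DMG 50:10:38.5:1.5 mol %) carrying N1-methylpseudouridine luciferase or hEPO mRNA diluted to about 5 μg/mL in TE, pH 7.5, with or without 2% Triton X-100, 15 min at 37° C. RiboGreen fluorescence (ex ~480, em ~520 nm) blank-subtracted; free RNA = intact/disrupted signal.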

hEPO mRNA = test: hEPO expression after intravenous administration to rats; type: in vivo, rat; conditions: Table 19B; for [hEPO] Lipid/MC3: ratio to MC3
Experimental: The expression of hEPO and cytokine induction in rats intravenously administered a nanoparticle composition at a dose of 2.0 mpk was measured at 6 h.
The expression of hEPO in rats intravenously administered a nanoparticle composition at a dose of 0.2 mpk or 2.0 mpk was measured at 6 hours. Table 16 summarize the ratio of hEPO expression levels using various nanoparticle compositions as compared to the hEPO expression level using MC3 formulation and the lipid levels in the liver measured 48 hours after administration, as described above. Tables 17 and 18 summarize the lipid levels in the liver and spleen measured 48 hours after administration of Compounds 28, 33, 53, and 54. Liver and spleen levels represent the average values calculated for 3 rats in each group. As is shown in Tables 17 and 18, less than 10% of Compounds 28, 33, 53, and 54 remained in the liver after 48 hours, while greater than 60% of MC3 remained.
Table 19A summarizes the hEPO expression, IP-10 induction, liver and spleen levels, and alanine aminotransferase (ALT) and aspartate aminotransferase (AST) measured upon intravenous administration of formulations including Compounds 48, 49, and 50 to rat at 0.2 and 2 mpk and hEPO mRNA. hEPO concentrations were measured 6 hours after administration, while cytokine induction and liver and spleen levels were measured 48 hours after administration. hEPO and IP-10 concentrations are presented in pg/ml, while liver levels are provided in ng/g. ALT and AST levels are presented in international units.
The expression of hEPO induced by intravenous administration to rats of nanoparticle compositions at various doses was measured at 2, 4, 6, 8, 24, and 48 hour time points. FIGS. 3-6 respectively summarize the hEPO expression measured upon intravenous administration of formulations including Compounds 26, 18, 25, and MC3 to rat at various doses. The lipid levels of Compound 26 in the liver after 48 hours were about 19%.
The expression of hEPO and lipid levels in the liver and spleen in rats intravenously administered a nanoparticle composition at a dose of 0.2 mpk was measured at various time points. Compounds 18 and 25 were selected for comparison with MC3. Lipids were formulated according to the standard MC3 formulation described above. Rats were administered intravenously a single 0.2 mpk dose and expression monitored at 0.25, 0.5, 1, 2, 4, 8, 24, and 48 hours after administration.

[5] = Table 1A, lipid:DSPC:cholesterol:PEG-DMG 50:10:38.5:1.5 mol %
[6] = Table 1E, compositions for subcutaneous administration
[7] = Table 1B, formulated with hEPO mRNA

SMILES: CCCCCCCCCOC(=O)CCCCCCCN(CCCO)CCCCCCCC(=O)OC(CCCCCCCC)CCCCCCCC [Compound 19, Heptadecan-9-yl 8-((3-hydroxypropyl)(8-(nonyloxy)-8-oxooctyl)amino) octanoate]
- Size [1, 5]: 101.1 nm
- Size [1, 6]: 80.7 nm
- Total Flux, Femur (modified luciferase): 1.68E+06
- Total Flux, Liver (modified luciferase): 6.33E+08
- Total Flux, Lung (modified luciferase): 5.99E+06
- Total Flux, Spleen (modified luciferase): 1.77E+07
- Cytokine induction, IL-6 (IL-6, IP-10): 285.56
- Cytokine induction, IP-10 (IL-6, IP-10): 1468.94
- Novel lipid/MC3 expression ratio, i.v. (luciferase (Luc) mRNA [2]): 0.96

SMILES: CCCC/C=C\CCC(CC/C=C\CCCC)OC(=O)CCCCCCCN(CCO)CCCCCC(=O)OCCCCCCCCCCC [Compound 61, (5Z,12Z)-heptadeca-5,12-dien-9-yl 8-((2-hydroxyethyl)(6-oxo-6-(undecyloxy)hexyl)amino)octanoate]
- Size [1, 5]: 82.1 nm
- Size [1, 6]: 80.0 nm
- Total Flux, Liver (modified luciferase): 6.37E+08
- Total Flux, Lung (modified luciferase): 3.56E+06
- Total Flux, Spleen (modified luciferase): 1.61E+07
- AUC (luciferase (Luc) mRNA [3]; luciferase, intramuscular administration (Table 3H)): 2.30E+09 p/s*h

SMILES: CCCCCCCCCOC(=O)CCCCCCCN(CCCCCCCC(=O)OC(CCCCCCCC)CCCCCCCC)CCCn1ccc(=O)[nH]c1=O [Compound 114, Heptadecan-9-yl 8-((3-(2,4-dioxo-3,4-dihydropyrimidin-1(2H)-yl)propyl)(8-(nonyloxy)-8-oxooctyl)amino)octanoate]
- Size [1, 5]: 65.1 nm
- Total flux 6 hours after intramuscular administration, 0.01 mpk Dose (luciferase (Luc) mRNA [3]; intramuscular): 3.31E+06 p/s

SMILES: CCCCCCCCCOC(=O)CCCCCCCN(CCCN)CCCCCCCC(=O)OC(CCCCCCCC)CCCCCCCC [Compound 121, Heptadecan-9-yl 8-((3-aminopropyl)(8-(nonyloxy)-8-oxooctyl)amino)octanoate]
- Total flux 6 hours after intramuscular administration, 0.01 mpk Dose (luciferase (Luc) mRNA [3]; intramuscular): 1.06E+06 p/s

SMILES: CCCCCCCCCOC(=O)CCCCCCCN(C)CCCCCCCC(=O)OC(CCCCCCCC)CCCCCCCC [Compound 123, Heptadecan-9-yl 8-(methyl(8-(nonyloxy)-8-oxooctyl)amino)octanoate]
- Total Flux, Liver (modified luciferase): 2.50E+08
- Total Flux, Lung (modified luciferase): 1.78E+06
- Total Flux, Spleen (modified luciferase): 4.04E+06
- Total flux 6 hours after intramuscular administration, 0.01 mpk Dose (luciferase (Luc) mRNA [3]; intramuscular): 1.08E+07 p/s

SMILES: CCCCCCCCC(CCCCCCCC)OC(=O)CCCCCCCN(CCO)CCCCCC(=O)OC(CCCCCCCC)C1CC1 (stereo not shown) [Compound 128, Heptadecan-9-yl 8-((6-((1-cyclopropylnonyl)oxy)-6-oxohexyl)(2-hydroxyethyl)amino)octanoate]
- Size [1, 5]: 104.1 nm
- Size [1, 6]: 73.9 nm
- Total Flux, Liver (modified luciferase): 5.98E+09
- Total Flux, Lung (modified luciferase): 2.16E+07
- Total Flux, Spleen (modified luciferase): 7.09E+07
- Novel lipid/MC3 expression ratio, i.m. Luc (luciferase (Luc) mRNA [3]; intramuscular, luciferase, 6 hr. time point, relative to MC3 formulation): 0.99

SMILES: CCCCCCCCCCCCN(CCO)CCCCCCCCCCCC(=O)OC [Compound 137, Methyl 12-(dodecyl(2-hydroxyethyl)amino)dodecanoate]
- EE [4, 5]: 85.7%
- PDI [1, 5]: <1
- Total Flux, Femur (modified luciferase): 2.02E+04
- Total Flux, Liver (modified luciferase): 6.48E+04
- Total Flux, Lung (modified luciferase): 1.66E+04
- Flux in the liver (modified luciferase; mice (n=3), intravenous, 0.5 mpk, 6 hours): lowest
- Total Flux, Spleen (modified luciferase): 1.32E+05
- Cytokine induction, IL-6 (IL-6, IP-10): 130.82
- Cytokine induction, IP-10 (IL-6, IP-10): 234.35
- Flux at all timepoints measured (luciferase (Luc) mRNA [2]; mice, 0.5 mg/kg, 3, 6 and 24 hours): significantly lower flux

SMILES: CCCCCCCCCOC(=O)CCCCCCCN(CCO)CCCCCCC(=O)OCC(CCCCCCCC)CCCCCCCC [Compound 143, Nonyl 8-((2-hydroxyethyl)(7-((2-octyldecyl)oxy)-7-oxoheptyl)amino)octanoate]
- EE [4, 5]: 97.37%
- Size [1, 5]: 98.8 nm
- Total Flux, Liver (modified luciferase): 1.76E+09
- Total Flux, Lung (modified luciferase): 3.60E+07
- Total Flux, Spleen (modified luciferase): 1.42E+08
- Cytokine induction, IL-6 (IL-6, IP-10): 6.245
- Cytokine induction, IP-10 (IL-6, IP-10): 209.63
- Novel lipid/MC3 expression ratio, i.v. (luciferase (Luc) mRNA [2]): 0.44

SMILES: CCCCCCCCC(CCCCCCCC)OC(=O)CCCCCCCN(CCO)CCCCCCCCCC(=O)OCCCCCCC [Compound 189, Heptyl 10-((8-(heptadecan-9-yloxy)-8-oxooctyl)(2-hydroxyethyl)amino)decanoate]
- EE [4, 7]: 93.9%
- Size [1, 7]: 95.5 nm
- [hEPO] Lipid/MC3 (hEPO mRNA): 3.01E+06

SMILES: CCCCCCCCCOC(=O)CCCCCCCN(CCCCCCCC(=O)OC(CCCCCCCC)CCCCCCCC)CCCN/C(=N/[N+](=O)[O-])NC [Compound 200, Heptadecan-9-yl (E)-8-((3-(3-methyl-2-nitroguanidino)propyl)(8-(nonyloxy)-8-oxooctyl)amino)octanoate]
- EE [4, 5]: 97.65%
- EE [4, 7]: 97.3%
- Size [1, 5]: 76.2 nm
- Size [1, 7]: 95.3 nm
- hEPO AUC (hEPO mRNA): 2.4e+07 pg·h/mL
- [hEPO] Lipid/MC3 (hEPO mRNA): 1.72E+06

SMILES: CCCCCCCCCOC(=O)CCCCCCCN(CCO)CCCCCC(=O)OC1CCC(CCCCC)CC1 (stereo not shown) [Compound 232, Nonyl 8-((2-hydroxyethyl)(6-oxo-6-((4-pentylcyclohexyl)oxy)hexyl)amino)octanoate]
- EE [4, 7]: 76.3%
- Size [1, 7]: 150.3 nm
- [hEPO] Lipid/MC3 (hEPO mRNA): 0.83
